Patent US20250275559A1, “SATURATED FATTY ACIDS AND THEIR USE TO MODIFY TASTE” (Firmenich Incorporated, priority 2022, published 2025)

Experiments:
Type in all cases: cell-based
[1] = target: T1, T2R01 (TAS2R01) (Homo sapiens, UniProt Q9NYW7); assay: FLIPR calcium assay, block of bitter agonist response in cells transfected with T2R01; settings: saturated fatty acid concentration of 200 μM, read-out: percentage block of cellular response over baseline, 01
T1 construct: expressed in transfected cells; host or cells: cells expressing a promiscuous G protein (e.g., G16g44)
T1 sequence (Q9NYW7 1-299): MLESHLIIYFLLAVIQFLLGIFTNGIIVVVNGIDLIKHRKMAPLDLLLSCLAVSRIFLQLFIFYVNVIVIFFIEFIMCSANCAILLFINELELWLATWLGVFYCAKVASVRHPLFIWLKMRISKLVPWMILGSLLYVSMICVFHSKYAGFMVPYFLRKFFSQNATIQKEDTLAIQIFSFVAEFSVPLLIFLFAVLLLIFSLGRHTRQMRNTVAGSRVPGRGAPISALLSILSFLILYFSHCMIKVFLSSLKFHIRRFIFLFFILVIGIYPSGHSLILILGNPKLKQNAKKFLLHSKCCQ
Protocol: (§1) Cells expressing a promiscuous […] (e.g., G16g44) were transfected with vectors encoding 5 functional bitter receptor cDNAs, with one receptor per transfection. The cells were transfected directly in 384-well format high-density plates and incubated for 28 hours. Later, cells were loaded with the Ca-specific dye Fluo4-AM. After an incubation of 60 minutes, excess dye is washed off, and cells are stimulated with various saturated fatty acids while simultaneously recording changes in intracellular fluorescence using a FLIPR instrument.
(§2) The above protocol was carried out using 13 different saturated fatty acids. […] Table 2 indicates the thirteen (13) compounds tested by their compound number from Table 1 above. The 6 bitter taste receptors are the human bitter taste receptors, that we named T2R01 (TAS2R01), T2R08 (TAS2R08), T2R10 (TAS2R10), T2R14 (TAS2R14), T2R54 (TAS2R39), and T2R75 (TAS2R46). The corresponding IUPHAR nomenclature for each receptor is given in parenthesis. In Table 2, these receptors are identified by the last two digits. For example, T2R01 is indicated as 01. Table 2 reports the percentage block of cellular response over baseline at a saturated fatty acid concentration of 200 μM.

[2] = target: T2, T2R08 (TAS2R08) (Homo sapiens, UniProt Q9NYW2); assay: FLIPR calcium assay, block of bitter agonist response in cells transfected with T2R08; settings: saturated fatty acid concentration of 200 μM, read-out: percentage block of cellular response over baseline, 08
T2 construct: expressed in transfected cells; host or cells: cells expressing a promiscuous G protein (e.g., G16g44)
T2 sequence (Q9NYW2 1-309): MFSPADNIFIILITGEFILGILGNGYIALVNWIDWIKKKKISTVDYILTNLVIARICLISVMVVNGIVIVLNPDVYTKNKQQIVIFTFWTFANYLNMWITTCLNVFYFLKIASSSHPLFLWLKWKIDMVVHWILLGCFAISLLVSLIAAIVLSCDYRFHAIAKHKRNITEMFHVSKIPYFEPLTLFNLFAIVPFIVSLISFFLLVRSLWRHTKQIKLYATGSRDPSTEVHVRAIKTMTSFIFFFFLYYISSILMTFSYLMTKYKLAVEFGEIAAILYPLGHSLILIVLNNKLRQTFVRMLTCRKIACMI
Protocol: as §1, with “instrument. Bitter agonist and responding receptors were identified.” for “instrument.”
as §2, with “acids. A particular T2R receptor was identified as being antagonized by a particular saturated fatty acid if it triggered a >25% block of agonist's cellular response at 200 µM concentration of saturated fatty acid.” for “acids.”

[3] = target: T3, T2R10 (TAS2R10) (Homo sapiens, UniProt Q9NYW0); assay: FLIPR calcium assay, block of bitter agonist response in cells transfected with T2R10; settings: saturated fatty acid concentration of 200 μM, read-out: percentage block of cellular response over baseline, 10
T3 construct: expressed in transfected cells; host or cells: cells expressing a promiscuous G protein (e.g., G16g44)
T3 sequence (Q9NYW0 1-307): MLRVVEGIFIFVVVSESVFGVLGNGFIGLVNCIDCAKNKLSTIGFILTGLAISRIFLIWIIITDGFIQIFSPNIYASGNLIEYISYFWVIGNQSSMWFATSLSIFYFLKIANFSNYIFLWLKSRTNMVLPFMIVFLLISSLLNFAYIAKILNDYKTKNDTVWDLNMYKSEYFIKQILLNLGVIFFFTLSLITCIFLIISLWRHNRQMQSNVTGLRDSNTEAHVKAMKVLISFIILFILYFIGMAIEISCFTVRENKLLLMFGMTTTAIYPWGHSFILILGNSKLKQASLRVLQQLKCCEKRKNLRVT
Protocol: as §1, §2

[4] = target: T4, T2R14 (TAS2R14) (Homo sapiens, UniProt Q9NYV8); assay: FLIPR calcium assay, block of bitter agonist response in cells transfected with T2R14; settings: saturated fatty acid concentration of 200 μM
T4 construct: expressed in transfected cells; host or cells: cells expressing a promiscuous G protein (e.g., G16g44)
T4 sequence (Q9NYV8 1-317): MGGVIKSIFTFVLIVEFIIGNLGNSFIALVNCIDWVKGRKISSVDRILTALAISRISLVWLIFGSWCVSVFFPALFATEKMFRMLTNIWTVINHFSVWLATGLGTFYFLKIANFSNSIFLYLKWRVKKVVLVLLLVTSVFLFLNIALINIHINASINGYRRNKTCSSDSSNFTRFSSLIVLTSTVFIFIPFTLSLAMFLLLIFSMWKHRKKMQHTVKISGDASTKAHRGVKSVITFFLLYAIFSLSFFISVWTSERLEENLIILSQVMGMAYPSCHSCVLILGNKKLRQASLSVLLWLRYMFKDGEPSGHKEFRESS
Protocol: as §1, §2

[5] = target: T5, T2R54 (TAS2R39) (Homo sapiens, UniProt P59534); assay: FLIPR calcium assay, block of bitter agonist response in cells transfected with T2R54; settings: saturated fatty acid concentration of 200 μM
T5 construct: expressed in transfected cells; host or cells: cells expressing a promiscuous G protein (e.g., G16g44)
T5 sequence (P59534 1-338): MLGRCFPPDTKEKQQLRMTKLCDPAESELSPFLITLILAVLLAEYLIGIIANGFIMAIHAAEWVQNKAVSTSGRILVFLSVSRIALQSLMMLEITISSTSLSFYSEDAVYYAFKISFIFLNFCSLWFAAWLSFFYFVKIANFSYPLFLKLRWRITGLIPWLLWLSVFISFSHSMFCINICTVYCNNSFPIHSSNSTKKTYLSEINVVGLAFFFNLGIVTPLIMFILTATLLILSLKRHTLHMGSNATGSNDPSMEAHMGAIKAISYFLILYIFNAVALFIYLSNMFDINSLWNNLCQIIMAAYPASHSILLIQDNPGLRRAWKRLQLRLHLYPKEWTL
Protocol: as §1, §2

[6] = target: T6, T2R75 (TAS2R46) (Homo sapiens, UniProt P59540); assay: FLIPR calcium assay, block of bitter agonist response in cells transfected with T2R75; settings: saturated fatty acid concentration of 200 μM
T6 construct: expressed in transfected cells; host or cells: cells expressing a promiscuous G protein (e.g., G16g44)
T6 sequence (P59540 1-309): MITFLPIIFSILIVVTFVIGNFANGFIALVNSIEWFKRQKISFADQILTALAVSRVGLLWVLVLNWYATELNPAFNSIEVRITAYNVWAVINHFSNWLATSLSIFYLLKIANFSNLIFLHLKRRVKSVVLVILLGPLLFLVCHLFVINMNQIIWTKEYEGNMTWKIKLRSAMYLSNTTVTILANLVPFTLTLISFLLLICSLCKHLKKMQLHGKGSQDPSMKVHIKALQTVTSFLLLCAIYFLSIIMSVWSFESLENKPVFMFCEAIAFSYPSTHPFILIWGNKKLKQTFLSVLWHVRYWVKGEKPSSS
Protocol: as §1, §2

Row | Compound | inhibition at 200 µM [1] [%] | inhibition at 200 µM [2] [%] | inhibition at 200 µM [3] [%] | percentage block of cellular response over baseline, 14 [4] [%] | percentage block of cellular response over baseline, 54 [5] [%] | percentage block of cellular response over baseline, 75 [6] [%]
1 | CCCCCCCCC(=O)O [Compound 103, Nonanoic acid (Pelargonic acid)] | > 50 | > 50 | > 70 | >35 |  | 
2 | CCCCCCCCCCCC(=O)O [Compound 106, Dodecanoic acid (Lauric acid)] | > 35 | 40 | > 85 | 65 |  | 
3 | CCCCCCCCCCC(=O)O [Compound 105, Undecanoic acid] | > 75 |  | > 95 | >85 |  | 
4 | CCCCC(C)C(=O)O (stereo not drawn) [Compound 114, 2-Methylhexanoic acid] |  |  |  |  | 50 | 
5 | CCCCC(CC)C(=O)O (stereo not drawn) [Compound 115, 2-Ethylhexanoic acid] |  |  |  |  | 50 | 
6 | CCCCCCCCCCCCC(=O)O [Compound 107, Tridecanoic acid] |  |  |  | >25 |  | 

Next, values leading:

Row | inhibition at 200 µM [1] [%] | inhibition at 200 µM [2] [%] | inhibition at 200 µM [3] [%] | percentage block of cellular response over baseline, 14 [4] [%] | percentage block of cellular response over baseline, 54 [5] [%] | percentage block of cellular response over baseline, 75 [6] [%] | Compound
7 | > 75 | > 65 | > 95 | >55 | >75 | >50 | CCCCCCCCCC(=O)O [Compound 104, Decanoic acid (Capric acid)]
8 | > 30 |  | 40 | >25 | 90 | 30 | CCCCCCCC(=O)O [Compound 102, Octanoic acid (Caprylic acid)]
9 |  | 30 | 30 |  | 80 |  | CCCCCC(C)C(=O)O (stereo not drawn) [Compound 117, 2-Methylheptanoic acid]
10 | > 30 | > 25 | > 50 |  | 95 | 25 | CCCCC(CC)CCC(=O)O (stereo not drawn) [Compound 120, 4-Ethyloctanoic acid]
11 | 40 | 45 | > 60 |  |  |  | CCCCC(C)CCC(=O)O (stereo not drawn) [Compound 119, 4-Methyloctanoic acid]
12 |  | 25 |  |  | 65 |  | CCCCCCC(=O)O [Compound 101, Heptanoic acid (Enanthic acid)]
13 | > 50 | > 55 | > 85 | >40 |  |  | CCCCCC(C)CCC(=O)O (stereo not drawn) [Compound 121, 4-Methylnonanoic acid]
